{"source": "patent US11752122B2", "about": "(OKLAHOMA MEDICAL RESEARCH FOUNDATION, priority 2018, dated 2023)", "key": {"mouse model": {"tested_on": "mouse model", "conditions": "cited from earlier work"}, "[1]": {"conditions": "2007 study; cited from earlier work"}, "LDLR mice on HFD": {"tested_on": "LDLR mice on HFD", "conditions": "LDLR mice, very low concentration, preliminary unpublished data", "from_the_text": "Mice. Hypercholesterolemic mice deficient for low-density lipoprotein receptors (Ldlr−/−), which only express ApoB-100 (Ldlr−/−Apob100/100, LDLR), were obtained from Jackson Laboratories (B6; 129SLdlrtm1HerApobtm2Sgy/J, stock no. 003000). WT C57bl/6 mice were also obtained from the Jackson Laboratory (stock no. 000664) and served as controls. TGF-β1^platelet-KO-LDLR mice (Pf4Cre+Tgfb1f/f;Ldlr−/−Apob100/100;) and TGF-β1^flox-LDLR littermate controls (Tgfb1f/f;Ldlr−/−Apob100/100) were generated by crossing LDLR mice with Pf4Cre+;Tgfb1f/f mice, as shown in FIGS. 7A-B and Supplemental Table 5. […] The inventor crossed Tie2Cre mice (stock no. 008863, Jackson Laboratories) with tdTomato lox-stop-lox mice (stock no. 007909, Jackson Laboratories) to generate Tie2Cre;tdTomato mice that express tdTomato only under Cre activity. All mice were housed in a controlled environment (23±2° C.; 12 hours light/dark cycles) and fed either a chow diet (CD) (PicoLab® Rodent Diet 20, 5053) or a customized high fat diet (HFD) (Harlan Teklad, TD.9612102. containing 21% milk fat (MF), 1.25% Cholesterol) in powdered form in a glass jar with perforated metal strainer (DYETS, Braintree Scientific Inc.). The Oklahoma Medical Research Foundation's Institutional Animal Care and Usage Committee approved all procedures.\nExperimental Design. A total of 118 LDLR (58 Males, 60 Females) and 20 WT mice (10 Males, 10 Females) were used for this study. Half of the mice (6 weeks old) were switched to HFD and maintained for up to 9 months. Progression and severity (mild/moderate/severe) of AS were monitored at 0, 3, 6 and 9 months by echocardiography using non-invasive ultrasound imaging techniques. Five mice per cage (total of 25 males, 15 females) were treated with 2% N-acetylcysteine (NAC) (Acros Organics, 160280010) in drinking water. NAC was prepared in reverse osmosis water and its pH was adjusted to 7.4 with NaOH. Water was replaced with a fresh solution every week.\nEchocardiography. Mice were anesthetized with Isoflurane (3-5% inhalation) in an induction chamber. Mice that appeared to be sick due to severe stenosis or that were underweight were anesthetized using a lower isoflurane level to prevent adverse or lethal effects from the anesthetic. Once visibly anesthetized, isoflurane was reduced to 0.5%-2% and the mouse was moved from the chamber to a nose-cone on a heated platform set at 40° C. to maintain body temperature (35±2° C.). Heavier mice were maintained at higher isoflurane levels as they appeared less sensitive to its anesthetic effects. All four limbs were taped to physiological electrodes and a rectal temperature probe was inserted. Electrode gel was used to enhance the physiologic readings. To ensure accuracy of all echo measurements, physiological parameters were monitored and recordings were only taken if the heart rate was 430-550 beats per minute, respiration was 20-100 breaths per minute, and body temperature was close to 37° C. (35±2° C.).\nMeasurement of AS parameters using a modified view of ultrasound imaging. Echocardiography is the gold standard non-invasive method to measure AS in humans. However, the mouse heart rate is 10-times faster (500 to 600 beats per minute), making the acquisition of high-resolution images of the very thin non-diseased valves challenging. […] LVOT was measured from the long-axis view and was used to calculate AV pressure and normalize the cusp separation (Lindman et al., 2016; Meyer et al., 2012). This view was obtained by tilting the lower left corner of the platform downward by about 30° and angling the transducer up such that it interfaced with the chest cavity by about 45°."}, "[2]": {"tested_on": "ascending aortic constriction (AAC) model", "assay": "Cardiac fibrosis in ascending aortic constriction (AAC) model", "assay_type": "in vivo, mice", "conditions": "WT C57Bl/6 mice, very low concentration, preliminary unpublished data", "from_the_text": "Ascending Aortic Constriction. Ascending aortic constriction was induced by controlled constriction of the ascending aorta as described previously 26. Briefly, mice were anesthetized with 1.5% isoflurane and the ascending aorta was surgically exposed by a mid-thorax incision. A 2 7-0 suture was placed around both the aorta and an adjacent 27-gauge (0.41 mm OD) needle proximal to the origin of the innominate artery. […] Mice were sacrificed and tissues collected 1 month after the surgery."}}, "data": [{"smiles": "CC(=O)N[C@@H](CSN=O)C(=O)O", "note": "[SNOAC, S-nitroso-N-acetylcysteine]", "values": [{"measurement": "hypoxia-like response in gene expression", "setting": "mouse model; in vitro and in vivo", "value": "induced a hypoxia-like response"}, {"measurement": "blood pressure in the lungs and right ventricle of the heart (pulmonary artery hypertension)", "setting": "mouse model; mice treated with acetylcysteine, metabolite SNOAC", "value": "increased"}]}, {"smiles": "CC(C)c1nc(N(C)S(C)(=O)=O)nc(-c2ccc(F)cc2)c1/C=C/[C@@H](O)C[C@@H](O)CC(=O)O", "note": "[rosuvastatin]", "values": [{"measurement": "aortic stenosis progression", "setting": "[1]", "value": "slowing of aortic stenosis"}]}, {"smiles": "Cc1cccc(-c2nn3c(c2-c2ccnc4ccc(C(N)=O)cc24)CCC3)n1", "note": "[galunisertive]", "values": [{"measurement": "AS progression", "setting": "LDLR mice on HFD", "value": "halted AS progression"}, {"measurement": "cardiac fibrosis induced by ascending aortic constriction", "setting": "[2]", "value": "inhibited cardiac fibrosis"}]}]}
